Values quoted from earlier work, collected in US7125702B2, “Process for the preparation of angiotensis converting enzyme (ACE) inhibitors and its use” (Council of Scientific and Industrial Research, priority 2003, dated 2006).
One block for each substance: values may come before it.

Legend:
[1] = target: angiotensin-converting enzyme (Homo sapiens, UniProt P12821); conditions: read-out: IC50 (ACE inhibition)
[2] = tested on: spontaneously hypertensive rats; conditions: 30 mg/kg intravenous injection
[3] = target: angiotensin I-converting enzyme (Homo sapiens, UniProt P12821); conditions: read-out: IC50 (ACE inhibition)
Chain of angiotensin I-converting enzyme (P12821 30-1306): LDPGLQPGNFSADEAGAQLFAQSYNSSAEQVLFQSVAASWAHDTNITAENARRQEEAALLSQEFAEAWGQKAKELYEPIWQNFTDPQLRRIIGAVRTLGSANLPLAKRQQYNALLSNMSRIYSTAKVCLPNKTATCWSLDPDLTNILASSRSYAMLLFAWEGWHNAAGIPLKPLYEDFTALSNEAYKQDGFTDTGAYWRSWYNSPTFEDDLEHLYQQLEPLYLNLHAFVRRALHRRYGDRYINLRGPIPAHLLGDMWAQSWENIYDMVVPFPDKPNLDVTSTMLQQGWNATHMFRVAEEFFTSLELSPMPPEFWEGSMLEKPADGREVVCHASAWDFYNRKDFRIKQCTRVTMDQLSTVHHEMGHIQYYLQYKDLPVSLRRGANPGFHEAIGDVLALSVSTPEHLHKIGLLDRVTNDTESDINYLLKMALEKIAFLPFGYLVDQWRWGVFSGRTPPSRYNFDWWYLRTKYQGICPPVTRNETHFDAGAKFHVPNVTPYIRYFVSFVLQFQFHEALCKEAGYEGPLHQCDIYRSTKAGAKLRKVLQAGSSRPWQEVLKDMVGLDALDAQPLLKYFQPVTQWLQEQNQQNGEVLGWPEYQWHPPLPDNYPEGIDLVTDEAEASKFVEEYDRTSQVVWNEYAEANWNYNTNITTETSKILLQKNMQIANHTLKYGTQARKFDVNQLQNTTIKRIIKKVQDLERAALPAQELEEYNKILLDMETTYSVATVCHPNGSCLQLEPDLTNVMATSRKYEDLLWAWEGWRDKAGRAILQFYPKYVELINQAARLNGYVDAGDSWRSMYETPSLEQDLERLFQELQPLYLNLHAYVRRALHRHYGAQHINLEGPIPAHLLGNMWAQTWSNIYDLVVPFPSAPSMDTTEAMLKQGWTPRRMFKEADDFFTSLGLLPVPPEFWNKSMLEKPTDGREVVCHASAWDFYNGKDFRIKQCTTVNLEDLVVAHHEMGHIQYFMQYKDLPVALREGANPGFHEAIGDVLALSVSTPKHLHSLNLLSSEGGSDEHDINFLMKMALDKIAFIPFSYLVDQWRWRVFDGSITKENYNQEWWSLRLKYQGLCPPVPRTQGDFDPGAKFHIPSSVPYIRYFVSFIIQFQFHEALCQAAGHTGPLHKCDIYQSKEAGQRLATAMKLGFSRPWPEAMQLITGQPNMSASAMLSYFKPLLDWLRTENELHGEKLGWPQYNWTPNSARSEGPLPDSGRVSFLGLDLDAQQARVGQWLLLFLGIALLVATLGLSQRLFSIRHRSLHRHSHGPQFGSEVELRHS

Chain of angiotensin-converting enzyme (P12821 30-1306): as above

Substance: His-His-Leu
- pressure in the aorta (blood pressure; synthetic peptide): significant pressure decrease
- systolic blood pressure decrease (blood pressure; triple injections of the peptide): 61 mm Hg

Substance: Leu-Arg-Pro [tripeptide from thermolysin hydrolysate of α-zein]
- IC50 [1]: 270 nM
- blood pressure decrease [2]: 15 mm Hg

Substance: Asp-Gly
- IC50 [3]: 12300 nM

Substance: Leu-Asn-Pro [tripeptide from thermolysin hydrolysate of α-zein]
- IC50 [1]: 1900 nM

Next, values leading:

- IC50 [1]: 1700 nM
Substance: Leu-Ser-Pro [tripeptide from thermolysin hydrolysate of α-zein]

- IC50 [3]: 4800 nM
Substance: Ap-Leu-Pro
